Measured values published in publication PMC7558026, “Exploring and applying the substrate promiscuity of a C-glycosyltransferase in the chemo-enzymatic synthesis of bioactive C-glycosides” (Nature Communications, 2020).
“And” between values parts separate entries of the source, which are not always exact repeats. Identical values can stand only once.

How the values were obtained:
SGLT2 = target: T1, SGLT2 (Homo sapiens, UniProt P31639); experiment: 1-NBDG uptake in HEK293 cells stably expressing SGLT2; assay type: cell-based; settings: HEK293, compound at 10 μM; triplicate; read-out: SGLT2 inhibitory rates
T1 construct: Human full-length SGLT2 cDNA (NM_003041.3) was synthesized; expressed in transfected cells; host or cells: HEK293, retroviral transduction with pMSCVpuro-SGLT2, puromycin selected
T1 sequence (P31639 1-672): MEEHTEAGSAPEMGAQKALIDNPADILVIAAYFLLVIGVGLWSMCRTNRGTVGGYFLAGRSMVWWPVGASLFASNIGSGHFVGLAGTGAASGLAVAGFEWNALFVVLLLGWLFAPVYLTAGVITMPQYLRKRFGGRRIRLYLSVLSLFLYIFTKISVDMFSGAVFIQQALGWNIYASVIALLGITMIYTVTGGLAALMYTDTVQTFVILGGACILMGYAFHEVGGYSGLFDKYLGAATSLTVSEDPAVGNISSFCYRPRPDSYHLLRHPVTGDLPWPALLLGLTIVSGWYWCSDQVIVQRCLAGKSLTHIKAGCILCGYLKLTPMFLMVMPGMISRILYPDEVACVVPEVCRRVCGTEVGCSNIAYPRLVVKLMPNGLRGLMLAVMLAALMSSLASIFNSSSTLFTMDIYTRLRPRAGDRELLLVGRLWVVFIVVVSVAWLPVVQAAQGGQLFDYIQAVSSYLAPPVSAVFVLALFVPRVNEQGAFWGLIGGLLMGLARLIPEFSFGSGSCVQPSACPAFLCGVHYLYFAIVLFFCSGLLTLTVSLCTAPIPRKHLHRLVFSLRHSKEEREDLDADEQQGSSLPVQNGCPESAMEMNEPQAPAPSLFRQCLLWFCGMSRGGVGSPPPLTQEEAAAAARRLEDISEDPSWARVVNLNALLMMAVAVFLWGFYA

AbCGT = AbCGT (Aloe vera, UniProt A0A7G9P699); experiment: Glycosyltransferase activity assay, purified AbCGT (wild type) with aglycon acceptors and UDP-Glc; assay type: biochemical, Aloe barbadensis; settings: fig. 2b, purified AbCGT, redesigned substrates; Reaction-1 to -3
Chain of AbCGT (A0A7G9P699 entry or part of it): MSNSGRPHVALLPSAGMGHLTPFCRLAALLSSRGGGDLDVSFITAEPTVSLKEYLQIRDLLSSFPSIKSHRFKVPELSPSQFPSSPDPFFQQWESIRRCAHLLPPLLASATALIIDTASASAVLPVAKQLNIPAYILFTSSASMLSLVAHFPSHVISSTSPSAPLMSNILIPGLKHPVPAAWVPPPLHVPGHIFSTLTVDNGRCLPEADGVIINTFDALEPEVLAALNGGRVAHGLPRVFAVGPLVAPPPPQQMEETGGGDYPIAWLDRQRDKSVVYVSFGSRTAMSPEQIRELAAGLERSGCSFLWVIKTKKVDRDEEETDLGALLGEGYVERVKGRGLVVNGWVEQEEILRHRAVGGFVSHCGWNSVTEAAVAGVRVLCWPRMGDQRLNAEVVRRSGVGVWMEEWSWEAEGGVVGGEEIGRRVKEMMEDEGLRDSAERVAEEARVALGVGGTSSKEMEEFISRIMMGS

in vitro = settings: human
E. coli-AbCGT = experiment: Glycosylation by whole-cell biocatalyst E. coli-AbCGT; assay type: cell-based; settings: fig. 2c, 30 °C, M9 medium, 12 h, 0.25 mM acceptor; Reaction-1 to -3
Method: The induced cells of E. coli-AbCGT were harvested by centrifugation at 3000 × g for 5 min at 4 °C and washed with ddH2O. Pellets were resuspended by M9 minimal medium containing 2% glucose to appropriate cell density (OD600 = 3.0). Prepared whole-cell biocatalyst of E. coli-AbCGT (500 μL) was then added to 2-mL tubes containing various acceptors at a concentration of 0.25 mM. The mixture was incubated at 30 °C for 12 h with shaking (200 rpm). The reactions were analyzed using GT activity assays as described above. For quantification, three parallel assays were routinely carried out.

[1] = system: Influenza A/WSN/33 (H1N1); experiment: microbe, parasite or virus in culture; assay type: cell-based; settings: — = no inhibition activity

Which results are given for `Oc1cc(O)c(Cc2ccc3nccnc3c2)c(O)c1` [Compound 44]?
inhibition at 10 µM (SGLT2): 0.2%; conversion rates, Purified Enzyme (AbCGT): 100%; CC50 (in vitro): > 200 µM; conversion rates, Whole cells (E. coli-AbCGT): 7.1% and 12.8% and 10.1%; inhibition at 20 µM ([1]; final concentration 20 μM, read-out: Inhibitory Rates, anti-influenza A virus activity): < 0%; IC50 ([1]; read-out: IC50, anti-influenza A virus activity): > 20 µM
